Tested on: JAK1/3 signaling to STAT6 in Ramos B cells
Experiment: IL4 stimulation of JAK1/3 signaling to STAT6 in Ramos B cells (pSTAT6 Y641, FACS)
Type: cell-based
Settings: Homo sapiens; for inhibition at 0.2 µM: 0.2 uM compound, read-out: IL-4/STAT6 in Ramos Percent Inhibition at 0.2 uM; for inhibition at 1 µM: 1.0 uM compound, read-out: IL-4/STAT6 in Ramos Percent Inhibition at 1.0 uM
In short: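 Ramos cells in 10% FCS medium were pre-treated 1 h with compound, stimulated 15 min with 15 ng IL4, fixed in 2% paraformaldehyde and methanol-permeabilized. Intracellular phospho-STAT6 Y641 was stained with PE-conjugated antibody and quantified by flow cytometry.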

SMILES | inhibition at 0.2 µM [%] | inhibition at 1 µM [%]
CC(=O)N1CCN(c2ccc(Nc3cc(NC4CC4)c(C(N)=O)cn3)cc2)CC1 [Example 2] | 29 | 77
CC(=O)N1CCN(c2ccc(Nc3cc(NCc4cccc(F)c4)c(C(N)=O)cn3)cc2)CC1 [Example 229] | 38 | 67
